Experimental data taken from patent US12522660B2, “Methods for selection and stimulation of cells and apparatus for same” (C3S2 GMBH, priority 2018, dated 2026).

Experiments:
[1] = biological target: Strep-Tactin® (mutein streptavidin, SEQ ID NO: 4) (Streptomyces avidinii, UniProt P22629, E68V/S69T/V71R); conditions: general statement of the description, no experiment of the applicant; read-out: binding affinity KD for binding to Strep-Tactin®; cited from earlier work
[2] = tested on: CD4+ and CD8+ T cells; test: Viability and live cell count of engineered T cell composition; format: cell-based, human; conditions: generated composition; produced with versus without compound
Method: (§1) CD4+ and CD8+ T cells were isolated by immunoaffinity-based enrichment from leukapheresis samples from human donor subjects. […] The T cells cultured with our without Compound 63 were incubated overnight (approximately 24 hr) at 37° C., and were then transduced in serum-free culture media with our without Compound 63 ([…]) with a lentiviral vector encoding an anti-CD19 CAR. […] Following transduction, the cells were incubated in serum free media without recombinant cytokines (basal media) and with or without Compound 63 (1 mM) and allowed to incubate at about 37.0° C. in an incubator for up to 96 hours after initiation of the stimulation with the anti-CD3/anti-CD28 oligomeric stimulatory reagent (until day 5 of the process). […] The cryofrozen engineered CD4+ and CD8+ T cells were thawed, and T cells were assessed for intracellular S6 phosphorylation, a ribosomal protein and marker of mTOR inhibition, and co-stained for surface expression of CD4 or CD8 and for CCR7 and CD45RA as markers of memory subsets. pS6 expression in live CD8+ T cells by memory subsets was shown by the expression of CCR7 and CD45RA as shown in FIG. 6A. As shown, incubation with Compound 63 decreased the mean fluorescence intensity of stimulated memory T cell subsets, […], indicating an inhibition of mTOR, while having no significant effect on the percentage or total number of viable cells over time.

[3] = tested on: anti-CD19 CAR T cells; test: Long-term (12 days) stimulation with anti-idiotype antibody beads: expansion and survival; format: cell-based, human; conditions: anti-ID antibody beads
Method: CD4+ and CD8+ T cells were isolated by immunoaffinity-based enrichment from leukapheresis samples from human donor subjects. At day 1, isolated CD4+ and CD8+ T cells were mixed 1:1 and stimulated with an anti-CD3/anti-CD28 oligomeric stimulatory reagent generated as described in Example 1 in serum-free media supplemented with recombinant IL-2 (100 IU/mL), recombinant IL-7 (600 IU/mL), and recombinant IL-15 (100 IU/mL) with or without 1 μM of 2-(3-hydroxyphenyl)-9-(2-isopropylphenyl)-8-oxo-8,9-dihydro-7H-purine-6-carboxamide (Compound 63). The T cells cultured with our without Compound 63 were incubated overnight (approximately 24 hr) at 37° C., and were then transduced in serum-free culture media with our without Compound 63 ([…]) with a lentiviral vector encoding an anti-CD19 CAR. The CAR contained an scFv antigen-binding domain specific for CD19 (derived from FMC63), a CD28 transmembrane region, a 4-1BB costimulatory signaling region, and a CD3-zeta derived intracellular signaling domain. […]
To further assess the functional activity of the cells, the generated T cell compositions were stimulated long-term over 12 days with beads conjugated with an anti-idiotype (ID) antibody against the anti-CD19 CAR, and expansion and survival of the cells were monitored (FIG. 7F, left panel) and total expansion metric calculated by area under the curve (FIG. 7F, right panel).

[4] = tested on: CD4+ and CD8+ T cells; test: Caspase, CD27/CCR7 phenotype and intracellular cytokines of thawed engineered T cells; format: cell-based, human
Method: CD4+ and CD8+ T cells were isolated by immunoaffinity-based enrichment from leukapheresis samples from human donor subjects. At day 1, isolated CD4+ and CD8+ T cells were mixed 1:1 and stimulated with an anti-CD3/anti-CD28 oligomeric stimulatory reagent generated as described in Example 1 in serum-free media supplemented with recombinant IL-2 (100 IU/mL), recombinant IL-7 (600 IU/mL), and recombinant IL-15 (100 IU/mL) with or without 1 μM of 2-(3-hydroxyphenyl)-9-(2-isopropylphenyl)-8-oxo-8,9-dihydro-7H-purine-6-carboxamide (Compound 63). The T cells cultured with our without Compound 63 were incubated overnight (approximately 24 hr) at 37° C., and were then transduced in serum-free culture media with our without Compound 63 ([…]) with a lentiviral vector encoding an anti-CD19 CAR. The CAR contained an scFv antigen-binding domain specific for CD19 (derived from FMC63), a CD28 transmembrane region, a 4-1BB costimulatory signaling region, and a CD3-zeta derived intracellular signaling domain. Following transduction, the cells were incubated in serum free media without recombinant cytokines (basal media) and with or without Compound 63 (1 mM) and allowed to incubate at about 37.0° C. in an incubator for up to 96 hours after initiation of the stimulation with the anti-CD3/anti-CD28 oligomeric stimulatory reagent (until day 5 of the process). […] Following incubation CD4+ and CD8+ T cells from each donor were harvested, formulated, and cryofrozen.
Thawed cells generated by the process described were assessed for a marker of apoptosis (e.g., percentage of caspase positive CAR-T cells), phenotypic profile, and ability to produce intracellular cytokines following stimulation with PMA/Ionomycin and a Golgi Inhibitor. […] Thawed cells also were stained for surface expression of CD27 and CCR7 by flow cytometry.

[5] = tested on: mTOR; test: Intracellular S6 phosphorylation (marker of mTOR inhibition) in engineered T cells; format: cell-based, human; conditions: live CD8+ T cells; 1 μM at stimulation (1 mM printed for later steps)
Method: as §1

Strep-Tactin® (mutein streptavidin, SEQ ID NO: 4), sequence (P22629 other isoform, or with tags, fused parts or gaps E68V/S69T/V71R): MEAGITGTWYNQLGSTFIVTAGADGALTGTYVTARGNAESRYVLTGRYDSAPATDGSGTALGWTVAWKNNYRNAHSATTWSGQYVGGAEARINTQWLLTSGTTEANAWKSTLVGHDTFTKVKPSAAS

Compound | Kd [1] [nM] | percent viable cells [2] | total live cells [2] | function (expansion and survival) after long-term CAR-specific stimulation [3] | phenotypic subset profile by CD27 and/or CCR7 expression ([4]; CD8+ and CD4+ T cells) | level of intracellular cytokines IL2, IFNg, or TNF ([4]; after PMA/Ionomycin and Golgi inhibitor, CD8+ and CD4+ T cells) | intracellular caspase expression ([4]; thawed CAR-T cells, with versus without compound) | pS6 mean fluorescence intensity in memory T cell subsets (Temra, Tem, Tcm) [5]
WSHPQFEK [Strep-Tag® II] | ~1000 |  |  |  |  |  |  | 
CC(C)c1ccccc1-n1c(=O)[nH]c2c(C(N)=O)nc(-c3cccc(O)c3)nc21 [Compound 63, 2-(3-hydroxyphenyl)-9-(2-isopropylphenyl)-8-oxo-8,9-dihydro-7H-purine-6-carboxamide] |  | did not impact | did not impact | improved function | did not substantially alter | substantially improved | less | decreased
